Here are results for 1 sequence from patent US7169604B1, “Method for PR-39 peptide mediated selective inhibition of IκBα degradation” (Beth Israel Deaconess Medical Center, priority 1998, dated 2007).

Assay [1] relates to p21, cyclin E and c-fos. The assay is described as follows: Levels of proteasome-regulated proteins by Western blotting. It is filed as cell-based, human. Here is the method:
This is shown by FIG. 3C.
The level of proteasome-regulated cell cycle repressor p21, cyclin E and c-fos proteins were determined by Western blotting in U937 cells pretreated with various amounts of PR-39 and then exposed to TNF-α (1 ng/ml).
For orientation: A western blot detects proteins with antibodies after separation by electrophoresis.

The subject of assay [2] is IκBα. The assay is described as follows: Reversibility of inhibition of IκBα degradation after washout in U937 cells. The class given is cell-based, human. To be noted: 100 nM for 45 min, washed, 45 min later TNF-α 1 ng/ml, 10 min. The method, then: In parallel cells were exposed to MG132, a rapidly reversible competitive inhibitor of the proteasome or with lactacystin which covalently and irreversibly modifies the active site threonine residues. The results are shown by FIG. 1F.
U937 cells were pretreated with 100 nM of PR-39, 10 μM of either MG132 or lactacystin (LC) or buffer (Control) for 45 min. These cells were then extensively washed with fresh medium. 45 min later TNF-α (1 ng/ml) was added to medium, and the extent of IκBα degradation was determined 10 min later by Western blotting.

The test system of assay [3] is ICAM-1 and VCAM-1. The assay is described as follows: ICAM-1 and VCAM-1 expression in mouse infarct model. The conditions noted are these: transgenic αMHC-PR-39 mice vs control mice, coronary artery ligation, 1, 3 or 7 days. It is filed as in vivo. The text has this: NFκB-dependent transcription is also activated following induction of ischemia in the heart, leading to increased expression of several adhesion molecules, including ICAM-1 and VCAM-1. To test the effect of PR-39 peptide on NFκB-dependent gene expression in this model, we assessed VCAM-1 and ICAM-1 protein levels following induction of myocardial infarction in transgenic mice expressing PR-39 cDNA in cardiac myocytes (αMHC-PR-39) and age-matched control mice. The result is given by FIG. 2D.
Transgenic mice stably expressing PR-39 in cardiac myocytes (αMHC-PR-39 mice) or litter mate controls (control mice) were subjected to acute coronary artery ligation as described (30) and randomized to intraperitoneal implantation of Alzet minipumps (Alza Corp, Palo Alto, Calif.) delivering 1 μg/kg/24 hr of PR-39 or buffer. Myocardial tissues collected 1, 3 or 7 days later were subjected to Western blot analysis for ICAM-1 and VCAM-1 gene expression that were normalized to expression levels prior to induction of infarction. Note the rapid increase in both ICAM-1 and VCAM-1 expression in control but not αMHC-PR-39 mice.
In contrast, induction of myocardial infarction had no effect on either ICAA-1 or VCAM-1 protein levels in αMHC-PR-39 mice.

Assay [4] relates to IκBα. The assay is described as follows: IκBα degradation in mouse pancreas, caerulein-induced acute pancreatitis. The conditions noted are these: 10 mg/kg i.v. 1 hour before caerulein 50 μg/kg i.v.; 30 min later. It is filed as in vivo. Here is the method:
Male mice weighing 20-25 g (ICR, Charles River Laboratories, Wilmington, Mass.) were pretreated with PR-39 (10 mg/kg, i.v.) or physiological saline 1 hour before injecting 50 μg/kg i.v. of caerulein (Research Plus, Bayonne, N.J.) to induce acute pancreatitis. 30 min later the animals were sacrificed in a CO2 chamber and a 75-100 mg piece of pancreas was removed for Western blotting and NFκB gel shift assays.
As empirically shown, induction of acute pancreatitis by treatment with the cholecystokinin analog caerulein leads to the prompt disappearance of IκBα (FIG. 2B) and activation of NFκB-dependent transcription in the pancreas (FIG. 2C).

The test system of assay [5] is U937 cells. The experiment in a line: Proteasome-dependent degradation of total cellular proteins (35S Met pulse-chase). It is filed as cell-based, human. To be noted: 10 μM, 1 hr chase, chloroquin 45 μM, after 16 hr metabolic labeling. The method, then:
Therefore the extent of degradation of long-lived cell proteins before or following exposure was compared to either PR-39 or MG132. The result is given by FIG. 3A.
Exponentially proliferating U937 cells were grown in 10% FBS-RPMI 1640 methionine-free medium supplemented with 200 μCi ^35S Met for 16 hr. Cells were then washed with complete RPMI 1640 medium 3 times and cultured in 10% FBS-RPMI (chase) in the presence of 10 μM of either PR-39 or MG132 or an equal volume of PBS. Chloroquin (45 μM) was added to all cultures to prevent the lysosomal protein degradation. 1 hr later the cells were lysed, and TCA soluble ^35S counts were measured in a liquid scintillation counter (LKB). All experiments were carried out in triplicate and repeated three times. The data are shown as mean±standard deviation.

The nature of assay [6]: Infarct size in mice, ischemia-reperfusion injury. It is filed as in vivo. The conditions noted are these: infusion prior to restoration of flow. The text has this: • a. Inhibition of ischemia-reperfusion injury. Restoration of blood flow to the myocardium in the setting of acute myocardial infarction leads to further damage to ischemic but still live heart muscle due to an influx of inflammatory blood cells that is mediated by NFκB-activated expression of endothelial adhesion molecules ICAM-1 and VCAM-1. Infusion of PR39 prior to restoration of flow blocks this effect due to inhibition of NFκB activity and effectively protects from further myocardial injury. […] Inhibition of chemical pancreatitis. Tissue injury in the pancreas due to chemical or hormonal injury is one of the more common causes of acute pancreatitis. This is largely mediated by NFκB. Pre-treatment with PR39 blocks this injury. • c. PR39 will block any other injury activated NFκB-dependent gene transcription and thus can be used to block the development of skin wounds, ulcers (stomach, duodenum), etc.

The subject of assay [7] is NFκB. The experiment in a line: NFκB-dependent luciferase reporter (pNFκB-Luc) in ECV304 cells. It is filed as cell-based, human. The conditions noted are these: 45 min pretreatment with 10 nM, TNF-α 1 ng/ml. The method, then: The results are presented by FIG. 2A.
The effect of PR-39-mediated inhibition of IκBα degradation on NFκB-dependent transcription was tested in ECV304 cells transiently transfected with pNFκB-Luc reporter vector.

Assay [8] concerns HSP70. The experiment in a line: HSP70 expression by Western blotting. The class given is cell-based, human.

Ends that are not written are not given here.

In the case of “RRRPRPPYLPRPRPPPFFPPRLPPRIPPGFPPRFPPRFP [PR-39]”, in assay [1] (ECV304 cells), the “levels of p21, cyclin E and c-fos” value is on record as “failed to demonstrate any effect”. Besides, the “proteasome-mediated degradation of p21, cyclin E and c-fos” value in assay [1] (U937 cells pretreated with various amounts, then TNF-α 1 ng/ml) was “lack of PR-39 dependent inhibition”. Further, in assay [2], the “extent of IκBα degradation after washout” value is reported as “complete disappearance of IκBα protein”. For the same sequence, the “NFκB-dependent gene expression (ICAM-1 and VCAM-1 protein levels)” value in assay [3] is listed as “blocks NFκB-dependent gene expression”. In assay [4], the “IκBα in mouse pancreas (Western blotting)” value is “preservation of IκBα”. Moreover, the “inhibition of total cell protein degradation” value in assay [5] is on record as “little or no effect”. Also, the “reduction of infarct size” value in assay [6] came to 60%. Moreover, the “TNF-α induced increase in luciferase activity” value in assay [7] is recorded as “completely blocked”. The HSP70 expression entry in assay [8] (U937 cells, 1 μM, 3 hr exposure) is reported as “lack of induction of HSP70 expression”. In addition, the HSP70 levels entry in assay [8] (cultured ECV304 cells, 10 μM) is recorded as “failed to stimulate HSP70 accumulation”.
